The assay has as its target T1, PTP1B (Homo sapiens, UniProt P18031).
T1 construct: gene PTPN1
T1 sequence (P18031 1-435): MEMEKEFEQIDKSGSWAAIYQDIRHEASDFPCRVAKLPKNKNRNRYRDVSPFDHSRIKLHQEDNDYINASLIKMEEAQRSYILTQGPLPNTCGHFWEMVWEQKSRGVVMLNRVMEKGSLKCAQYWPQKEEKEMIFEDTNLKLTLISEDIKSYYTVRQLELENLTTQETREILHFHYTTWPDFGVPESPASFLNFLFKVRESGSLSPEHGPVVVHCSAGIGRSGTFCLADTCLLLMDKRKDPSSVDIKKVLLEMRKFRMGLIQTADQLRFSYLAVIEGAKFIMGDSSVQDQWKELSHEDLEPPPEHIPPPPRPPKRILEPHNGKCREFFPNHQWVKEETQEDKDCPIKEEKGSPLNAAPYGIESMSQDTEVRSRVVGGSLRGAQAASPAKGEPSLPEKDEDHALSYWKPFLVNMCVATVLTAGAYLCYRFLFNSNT
The experiment in a line: recombinant PTP1B pNPP hydrolysis assay, absorbance at […] nm. The format is biochemical.

A word on the IC50: it is the concentration needed to halve the response being measured. In the case of `Oc1cc(O)c2c(c1)O[C@H](c1cc(O)c(O)c(O)c1)[C@H](O)C2` [EGC, epigallocatechin], the IC50 stood at 104 ± 10.1 µM.
